Each block holds one substance with its values, some of them ahead of it. Ends that are not written are not given here.
Columns and labels:
Ras = Ras Activity Assay (G-LISA, Ras-GTP); assay type: cell-based, human; conditions: 50 ng/ml; LF and AEC transfected with MET WT
Protocol: (§1) FIG. 4, comprising FIG. 4A through FIG. 4D, depicts the effect of HGF on Ras activation and Erk1/2 phosphorylation in lung fibroblasts (LF) and alveolar epithelial cells (AEC). FIG. 4A depicts HGF-induced Erk1/2 phosphorylation in LF and AEC transfected with MET WT and MET D1398G was determined in cells treated with HGF (50 ng/ml) for 10 min. Cell extracts were immunoblotted with anti-phospho-Erk1/2 or anti-Erk1/2, anti-MET, and anti-β-actin antibodies. FIG. 4B depicts densitometric analysis of phospho-Erk1/2 immunoblots from three independent experiments. FIG. 4C and FIG. 4D depict Ras activity in LF and AEC respectively, transfected with MET WT and MET D1398G treated with and without HGF (50 ng/ml) for 10 min.
G-LISA Kit (Cytoskeleton Inc., Denver, Colo.) was used to measure endogenous Ras-GTP levels. […] Bound Ras-GTP levels were determined by anti-Ras primary antibody followed by horseradish peroxidase-conjugated secondary antibody. A peroxidase substrate was applied, and the plates were read at 450 nm on a spectrophotometer.
HGF-induced phosphorylation of Erk1/2 is mediated by Ras (Campbell, et al., Oncogene, 1998, 17:1395-413). To investigate whether D1398G mutation affects MET-dependent Ras activation, Ras-GTP in LF and in AEC transfected with MET WT and with MET D1398G was measured.

Erk1/2 phosphorylation = test: HGF-induced Erk1/2 phosphorylation in transfected LF and AEC; assay type: cell-based, human; conditions: 50 ng/ml for 10 min
Protocol: as §1
The phosphorylation of p42/p44 MAPK isoforms was analyzed using anti-phospho-Erk1/2 and Erk1/2 antibodies in accordance with the manufacturer's instructions (Cell Signaling Technology, Danvers, Mass.). Immunoblots were routinely stripped and reblotted with anti-β-actin antibody (Sigma, St. Louis, Mo.) as a loading control.
To investigate whether the D1398G mutation affects MAPK signaling pathways, the Erk1/2 phosphorylation was examined. Basal and HGF-induced Erk1/2 phosphorylation were more prominent in AEC as compared with LF. […] The basal level of nonphosphorylated Erk1/2 in LF and AEC was not affected either by HGF stimulation or by transfection with D1398G mutation.

[1] = system: scleroderma LF transfected with MET WT or MET D1398G; test: Collagen, SMA, CTGF in transfected scleroderma lung fibroblasts, Western blot; assay type: cell-based, human; conditions: 50 ng/ml for 48 hours
Protocol: FIG. 2, comprising FIG. 2A and FIG. 2B, depicts Expression of type I collagen, SMA, and CCN2 in scleroderma lung fibroblasts (LF) transfected with MET WT and MET D1398G. FIG. 2A depicts transfected SSc LF were serum-starved for 24 hours followed by incubation for 48 hours with recombinant HGF (50 ng/ml). The cells were collected with lysis buffer and analyzed by Western blot with indicated antibodies including MET as a transfection efficiency control. Anti-β-actin antibody was used as a loading control. FIG. 2B depicts quantitative results of densitometric analysis of immunoblots. Values are the mean and SD from four independent experiments.
(§2) Cells were collected and analyzed by immunoblotting as previously described (Bogatkevich et al., J Biol Chem. 2001, 276:45184-45192; Bogatkevich et al., Arthritis Rheum. 2007, 56:3468-3477). Phosphorylation of MET was analyzed using anti-phospho-c-Met [pYpYpY^1230/1234/1235], pY^1349, and pY^1356 antibodies (BioSource International, Inc., Camarillo, Calif.). Total MET was immunobloted using anti-MET (C12) (Santa Cruz Biotechnology, Santa Cruz, Calif.) and anti-MET (25H2) (Cell Signaling, Danvers, Mass.). Anti-type I collagen antibody (Southern Biotechnology, Birmingham, Ala.)), anti-CTGF antibody (Santa Cruz Biotechnology, Santa Cruz, Calif.), and anti-smooth-α-actin antibody (Sigma, St. Louis, Mo.) were also used. […]

MET WT = target: T1, MET WT (Homo sapiens, UniProt P08581); test: HGF-induced MET tyrosine phosphorylation in transfected LF and AEC; assay type: cell-based; conditions: HGF 50 ng/ml
T1 construct: The wild type (WT) full-length c-MET cDNA in pLXSN; expressed in transfected cells; host or cells: lung fibroblasts (LF) and A549 alveolar epithelial cells, infected with recombinant adenovirus (pAdTrack-CMV/AdEasy)
Protocol: (§3) FIG. 1, comprising FIG. 1A and FIG. 1B, depicts MET tyrosine phosphorylation in lung fibroblasts (LF) and alveolar epithelial cells (AEC). FIG. 1A depicts a time course of MET WT and MET D1398G tyrosine phosphorylation as determined in LF and AEC incubated with HGF (50 ng/ml) for various time points. Cell extracts were immunoblotted with anti-phospho-MET or anti-MET polyclonal antibodies (see details in Materials and Methods). FIG. 1B depicts quantitative results of densitometric analysis of immunoblots. Values are the mean and SD from three independent experiments.
(§4) Cells were collected and analyzed by immunoblotting as previously described (Bogatkevich et al., J Biol Chem. 2001, 276:45184-45192; Bogatkevich et al., Arthritis Rheum. 2007, 56:3468-3477). Phosphorylation of MET was analyzed using anti-phospho-c-Met [pYpYpY^1230/1234/1235], pY^1349, and pY^1356 antibodies (BioSource International, Inc., Camarillo, Calif.). Total MET was immunobloted using anti-MET (C12) (Santa Cruz Biotechnology, Santa Cruz, Calif.) and anti-MET (25H2) (Cell Signaling, Danvers, Mass.). Anti-type I collagen antibody (Southern Biotechnology, Birmingham, Ala.)), anti-CTGF antibody (Santa Cruz Biotechnology, Santa Cruz, Calif.), and anti-smooth-α-actin antibody (Sigma, St. Louis, Mo.) were also used.
(§5) As an initial approach to evaluate the functional consequences of D1398G mutation, HGF-induced MET autophosphorylation was studied in LF and AEC (A549 cell line) transfected either with MET WT or D1398G mutant. MET tyrosine phosphorylation was assessed using anti-phospho-c-Met[pYpYpY^1230/1234/1235], pY^1349, and pY^1356 antibodies. Treatment with HGF induced rapid phosphorylation of MET WT at tyrosine 1230, 1234, and 1235 in both LF and AEC. Maximal phosphorylation was observed within 5 minutes of HGF treatment and decreased by 20 minutes following HGF treatment (FIG. 1). […] The time course of HGF-induced phosphorylation at tyrosine 1356 in LF resembled tyrosine 1230, 1234, and 1235 phosphorylation with maximal levels observed within 5 minutes of HGF treatment. Tyrosine 1356 phosphorylation in AEC appeared to be stronger than in LF with maximal levels observed within 20 minutes of HGF treatment.

MET D1398G = target: T2, MET D1398G (Homo sapiens, UniProt P08581, D1380G); test: as above; assay type: cell-based; conditions: HGF 50 ng/ml
T2 construct: The wild type (WT) full-length c-MET cDNA in pLXSN; expressed in transfected cells; host or cells: lung fibroblasts (LF) and A549 alveolar epithelial cells, infected with recombinant adenovirus (pAdTrack-CMV/AdEasy)
Protocol: as §3, §4, §5

[2] = system: normal LF transfected with MET WT or MET D1398G; test: Collagen, SMA, CTGF in transfected TGFβ-stimulated normal lung fibroblasts, Western blot; assay type: cell-based, human; conditions: 48 hours
Protocol: FIG. 3, comprising FIG. 3A through FIG. 3D, depicts expression of type I collagen, SMA, and CCN2 in normal lung fibroblasts (LF) transfected with MET WT and MET D1398G. Transfected […] lung fibroblasts were serum-starved for 24 hours followed by incubation for 48 hours with recombinant TGFβ (5 ng/ml) and/or HGF (50 ng/ml). FIG. 3A depicts that the cells were collected with lysis buffer and analyzed by Western blot with indicated antibodies including MET as a transfection efficiency control and anti-β-actin antibody as a loading control. FIG. 3B through FIG. 3D depict densitometric analysis of immunoblots for collagen, SMA and CCN2 respectively. Values are the mean and SD from three independent experiments.
as §2, with “Mass.).” for “Mass.). Anti-type I collagen antibody (Southern Biotechnology, Birmingham, Ala.)), anti-CTGF antibody (Santa Cruz Biotechnology, Santa Cruz, Calif.), and anti-smooth-α-actin antibody (Sigma, St. Louis, Mo.) were also used.”

[3] = system: TGFβ-stimulated lung fibroblasts; test: Collagen in TGFβ-stimulated lung fibroblasts, immunoblot; assay type: cell-based; conditions: 1 μg/ml for 24 h; TGFβ 5 ng/ml
Protocol: FIG. 18 depicts M5 peptide inhibits collagen in TGFβ-stimulated lung fibroblasts. Cells were incubated with and without TGFβ (5 ng/ml) and M5 peptide (1 μg/ml) for 24 h and analyzed by immunoblotting using anti-collagen type I antibody. Beta-actin was used as a loading control.
A peptide containing just the M5 sequence (TRPAS (SEQ ID NO: 4)) was generated and was tested for its effect on collagen.

[4] = system: bleomycin-induced pulmonary fibrosis; conditions: mouse, in vivo
Source text: FIG. 14A depicts representative histologic findings of lung inflammation and fibrosis. […] FIG. 14B depicts a quantitative evaluation of fibrotic changes (Ashcroft scores), n=32 (8 mice per group).
Mice (n=6), C57BL/6 male were used in this study. Mice were maintained in animal quarters specially designated for pathogen-free mice and were provided with food and water ad libitum. Lung injury was induced by intratracheal instillation of bleomycin (2 U/kg in saline) under isoflurane anesthesia. Control mice received same volume of saline. […] Control mice received 10 mg/kg scrambled peptide. Animals were sacrificed in 3 weeks, and lungs were harvested and processed for tissue staining.
Sacrificed mice were subjected to midline thoracotomy. […]
To evaluate the stages of lung fibrosis, multiple sections from each lung were stained with Hematoxylin and eosin (H & E staining) or with trichrome staining for collagen and other extracellular matrix proteins. Fibrosis quantification was performed by using 0 (normal) to 8 (total fibrosis) Ashcroft scale (Ashcroft, et al., J Clin Pathol, 1988, 41:467-470). Morphological changes such as the thickness of alveolar septa, accumulation of vascular component and connective tissue, infiltration of inflammatory cells were analyzed. For histological evaluation each specimens were divided in 10 non-overlapping fields and scored independently. […]

- time of maximal phosphorylation at tyrosine 1356 (MET WT; AEC): ≤ 20 min
- time of maximal phosphorylation at tyrosine 1356 (MET WT; LF): ≤ 5 min
- time of maximal phosphorylation at tyrosine 1230, 1234, and 1235 (MET WT; LF and AEC): ≤ 5 min
- tyrosine phosphorylation of MET D1398G in contrast to MET WT (MET D1398G; LF and AEC): decreased and delayed
- time of maximal phosphorylation at tyrosine 1356 (MET D1398G; MET D1398G): 1 h
Substance: HGF: recombinant hepatocyte growth factor, ligand of the MET receptor
- total Ras activity (Ras): significant increase in total Ras activity
- HGF-induced Erk1/2 phosphorylation, MET WT compared with MET D1398G cells (Erk1/2 phosphorylation): notably higher
- Erk1/2 phosphorylation (Erk1/2 phosphorylation; LF and AEC transfected with MET WT or MET D1398G): further induced Erk1/2 phosphorylation
- expression of collagen, SMA, and CTGF ([1]; scleroderma LF transfected with MET D1398G): not in LF transfected with mutant MET D1398G
- expression of collagen, SMA, and CTGF ([1]; scleroderma LF transfected with MET WT): reduced expression of collagen, SMA, and CTGF
- levels of collagen, SMA and CTGF [2]: decreased the levels of collagen, SMA and CTGF

Substance: TRPAS (M5 Peptide) [C-terminal fragment of the MET receptor]
- level of collagen versus fibroblasts stimulated with TGFβ [3]: reduced level of collagen

Substance: TRPASFWETS [M10]
- lung histology in control mice that received saline and peptide [4]: normal septa, vascular components, and connective tissue
- cell viability measured by the ATP-dependent assay (cell viability): does not affect cell viability
